± gives the expanded uncertainty stated by the source.
Assay: mn = molality of the nth substance listed, in mol/kg
Details: 100 kPa, Liquid; for speed of sound: Frequency=3 MHz, Sing-around technique in a fixed-path interferometer; for mass density: Vibrating tube method

Row | Compound | speed of sound (293.15 K, m1 = 0.1) | speed of sound (293.15 K, m1 = 0.2) | speed of sound (293.15 K, m1 = 0.3) | mass density (293.15 K, m1 = 0.1) | mass density (293.15 K, m1 = 0.2) | mass density (293.15 K, m1 = 0.3) | speed of sound (298.15 K, m1 = 0.1) | speed of sound (298.15 K, m1 = 0.2) | speed of sound (298.15 K, m1 = 0.3) | mass density (298.15 K, m1 = 0.1) | mass density (298.15 K, m1 = 0.2) | mass density (298.15 K, m1 = 0.3) | speed of sound (303.15 K, m1 = 0.1) | speed of sound (303.15 K, m1 = 0.2) | mass density (303.15 K, m1 = 0.1) | mass density (303.15 K, m1 = 0.2) | mass density (303.15 K, m1 = 0.3) | speed of sound (308.15 K, m1 = 0.1) | speed of sound (308.15 K, m1 = 0.2) | speed of sound (308.15 K, m1 = 0.3) | further results
1 | [Cl-].[K+] [potassium chloride] + O | 1488.5 ± 1.4 m/s | 1493.8 ± 1.4 m/s | 1497.6 ± 1.4 m/s | 1002.99 ± 0.16 kg/m3 | 1007.72 ± 0.16 kg/m3 | 1013.42 ± 0.17 kg/m3 | 1502.5 ± 1.4 m/s | 1507.3 ± 1.4 m/s | 1511 ± 1.4 m/s | 1001.79 ± 0.16 kg/m3 | 1006.48 ± 0.16 kg/m3 | 1012.13 ± 0.17 kg/m3 | 1514.6 ± 1.4 m/s | 1519.3 ± 1.4 m/s | 1000.36 ± 0.16 kg/m3 | 1005.02 ± 0.16 kg/m3 | 1010.63 ± 0.16 kg/m3 | 1525.1 ± 1.4 m/s | 1529.6 ± 1.4 m/s | 1532.9 ± 1.4 m/s | speed of sound (303.15 K, m1 = 0.3): 1522.8 ± 1.4 m/s; mass density (308.15 K, m1 = 0.1): 998.71 ± 0.16 kg/m3; mass density (308.15 K, m1 = 0.2): 1003.35 ± 0.16 kg/m3; mass density (308.15 K, m1 = 0.3): 1008.94 ± 0.16 kg/m3; speed of sound (313.15 K, m1 = 0.1): 1534 ± 1.4 m/s; speed of sound (313.15 K, m1 = 0.2): 1538.4 ± 1.4 m/s; speed of sound (313.15 K, m1 = 0.3): 1541.6 ± 1.4 m/s; mass density (313.15 K, m1 = 0.1): 996.88 ± 0.16 kg/m3; mass density (313.15 K, m1 = 0.2): 1001.49 ± 0.16 kg/m3; mass density (313.15 K, m1 = 0.3): 1007.02 ± 0.16 kg/m3
2 | [Cl-].[Na+] [sodium chloride] + O | 1489.3 ± 1.4 m/s | 1496.2 ± 1.4 m/s | 1502.3 ± 1.4 m/s | 1002.42 ± 0.16 kg/m3 | 1006.67 ± 0.16 kg/m3 | 1010.64 ± 0.16 kg/m3 | 1503.3 ± 1.4 m/s | 1509.9 ± 1.4 m/s | 1515.8 ± 1.4 m/s | 1001.21 ± 0.16 kg/m3 | 1005.41 ± 0.16 kg/m3 | 1009.34 ± 0.16 kg/m3 | 1515.5 ± 1.4 m/s | 1521.8 ± 1.4 m/s | 999.77 ± 0.16 kg/m3 | 1003.93 ± 0.16 kg/m3 | 1007.81 ± 0.16 kg/m3 | 1525.9 ± 1.4 m/s | 1532 ± 1.4 m/s | 1537.6 ± 1.4 m/s | mass density (308.15 K, m1 = 0.1): 998.12 ± 0.16 kg/m3; mass density (308.15 K, m1 = 0.2): 1002.25 ± 0.16 kg/m3; mass density (308.15 K, m1 = 0.3): 1006.1 ± 0.16 kg/m3; speed of sound (313.15 K, m1 = 0.1): 1534.8 ± 1.4 m/s; speed of sound (313.15 K, m1 = 0.2): 1540.7 ± 1.4 m/s; speed of sound (313.15 K, m1 = 0.3): 1546.2 ± 1.4 m/s; mass density (313.15 K, m1 = 0.1): 996.28 ± 0.16 kg/m3; mass density (313.15 K, m1 = 0.2): 1000.38 ± 0.16 kg/m3; mass density (313.15 K, m1 = 0.3): 1004.2 ± 0.16 kg/m3

— the NIST ThermoML archive (doi:10.1016/j.tca.2014.10.019)
